Results on eleven compounds are retold here after PubChem BioAssay (NCI).

What all share (test): growth of human tumour cells (NCI), 48 h
Experiment [1] has as its system EKVX NSCLC.
Experiment [2] deals with MDA-MB-231 breast.
The test system of experiment [3] is OVCAR-4 ovarian.
Experiment [4] concerns RPMI-8226 leukemia.
The test system of experiment [5] is SK-OV-3 ovarian.
For experiment [6], the system named is SN12C renal.
Experiment [7] deals with SNB-19 CNS.
For experiment [8], the system named is UO-31 renal.
For experiment [9], the system named is M19-MEL melanoma.
Experiment [10] has as its system SNB-78 CNS.

Molecules are shown by their SMILES. “And” between values parts separate entries of the source, which are not always exact repeats. Equal values may be shown once.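 All cell lines were grown in 96-well plates and treated with compound for 48 hours. Abbreviation: GI50, concentration required for 50% inhibition of growth. At the TGI there is no net growth.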 Bounds are passed on as bounds.

Regarding `COC(=O)/C=C1\SC(=Nc2ccc(C(F)(F)F)cc2)N(CCc2c[nH]c3ccccc23)C1=O`, the GI50 is 1.86 µM in experiment [1]; 1.5 µM in experiment [2]; 1.61 µM in [3]; 1.13 µM in experiment [4]; 2.05 µM in experiment [5]; 1.69 µM in experiment [6]. The GI50 in experiment [7] was 1.78 µM; in experiment [8], 1.3 µM. For the same compound, the TGI was 3.81 µM in [1]; 2.87 µM in [2]; 3.05 µM in experiment [3]; 4.3 µM in [4]; 4.06 µM in experiment [5]; 3.45 µM in experiment [6]. In addition, the TGI turned out to be 3.45 µM in [7] and 2.56 µM in experiment [8].
As to `O=C(O)C1CCCN1Cc1c[nH]c2ccccc12` (configuration not stated), the TGI in [1], in experiment [2], in [3], in experiment [4], in experiment [5] and in experiment [6] was greater than 100 µM each time. The TGI in experiment [7] and in experiment [8] was greater than 100 µM throughout.
With `O=C1NC(=O)[C@@H](c2cn3c4c(cccc24)CCC3)[C@@H]1c1c[nH]c2ccccc12`, the GI50 in experiment [1] is 0.482 µM and 0.991 µM; in [2], 0.632 µM and 1.19 µM; in experiment [3] it was 1.58 µM and 1.12 µM; in [4] it was 0.379 µM and 2.93 µM; in experiment [5] it was 0.48 µM and 0.372 µM; in experiment [6], 0.556 µM and 0.888 µM. Also, the GI50 in [7] was 0.466 µM and 0.601 µM; in [8] it was 0.552 µM and 0.519 µM. Also, the TGI is > 10 µM and 29.3 µM in experiment [1]; 8.12 µM and 9.86 µM in [2]; > 10 µM and 20.2 µM in experiment [3]; greater than 93.5 µM in experiment [4]; > 10 µM and 12.2 µM in experiment [5]; > 10 µM and 15.9 µM in experiment [6]. Moreover, the TGI is > 10 µM and 22.6 µM in experiment [7]; > 10 µM and 27.1 µM in experiment [8].
For the compound `COc1ccc(C(=O)c2cc(OC)c(OC)c(OC)c2)cc1/C=C/C(=O)c1ccc(O)cc1`, the GI50 was 4.55 µM in experiment [1]; 4.02 µM in experiment [2]; 2.73 µM in [3]; 1.56 µM in [4]; 16.3 µM in experiment [5]; 2.66 µM in experiment [6]. Further, the GI50 in experiment [7] is 4.42 µM; in experiment [8], 3.2 µM. For the same compound, the TGI is 19.4 µM in [1]; 24.9 µM in experiment [2]; 58.4 µM in experiment [3]; 82.9 µM in experiment [4]; greater than 100 µM in experiment [5]; 12.6 µM in experiment [6]. Further, the TGI in experiment [7] came to 19.7 µM; in experiment [8] it was 16.2 µM.
Take `CCOC(=O)c1sc2ncn(Cc3cccc(Cl)c3)c(=O)c2c1C`: the GI50 in experiment [1] is 17.3 µM; in experiment [2], 13.6 µM; in experiment [3], 16.2 µM; in [4] it was 5.58 µM; in [5], 17.4 µM; in [6], 15.3 µM. For the same compound, the figures for the GI50 in [7] and in experiment [8] were 16.3 µM and 13.5 µM, respectively. In addition, the TGI in experiment [1] was determined as 31 µM; in experiment [2], 26.4 µM; in [3], 29.7 µM; in experiment [4], 18.4 µM; in experiment [5], 31.2 µM; in [6], 28.6 µM. Also, the TGI came to 29.8 µM in experiment [7] and 26.4 µM in experiment [8].
With `Cc1ccc(C2=[N+]([O-])c3ccccc3C2=O)cc1`, the TGI in experiment [1] was 51.7 µM; in [9], greater than 55.4 µM; in [4], greater than 72 µM; in experiment [5] it was greater than 100 µM; in experiment [6], 37.8 µM; in [7], greater than 77.2 µM. In addition, the TGI was 74.2 µM in [10] and greater than 87.9 µM in experiment [8].
Regarding `C=C(CN1CCc2ccccc2C1)c1ccc(/C=C/C(=O)Nc2ccccc2N)cc1`, the GI50 in experiment [1] is 10.4 µM; in experiment [2], 4.36 µM; in [3] it was 45.4 µM; in experiment [4] it was 2.92 µM; in experiment [5] it was 66 µM; in [6], 4.49 µM. Moreover, the GI50 in experiment [7] was 26.6 µM; in [8] it was 0.437 µM. For the same compound, the TGI in experiment [1] is greater than 100 µM; in [2], 48.3 µM; in [3], greater than 100 µM; in experiment [4], 13.4 µM; in experiment [5], greater than 100 µM; in experiment [6], 31 µM. The TGI in [7] and in [8] was greater than 100 µM throughout.
Turning to `O=C1CC2(CCCc3sccc32)C(=O)N1` (configuration not stated), the TGI in [1], in experiment [2], in experiment [3], in experiment [4], in experiment [5] and in experiment [6] was greater than 100 µM each time. Moreover, the TGI in experiment [7] and in [8] was greater than 100 µM each time.
On to `COc1ccc(-n2c(-c3ccc(NC(=O)CCCl)cc3)nnc2-c2cc(OC)c(OC)c(OC)c2)cc1`, for which the GI50 in [1] is 3 µM; in experiment [2], 3.56 µM; in [3] it was 4.1 µM; in experiment [4], 2.85 µM; in [5] it was 4.34 µM; in experiment [6], 7.33 µM. Further, the results for the GI50 in experiment [7] and in experiment [8] were 4.33 µM and 1.94 µM, respectively. The TGI is greater than 14.3 µM in experiment [1]; greater than 14.3 µM in experiment [2]; greater than 14.3 µM in experiment [3]; 8.49 µM in [4]; greater than 14.3 µM in [5]; greater than 14.3 µM in experiment [6]. Also, the TGI in experiment [7] is greater than 14.3 µM; in experiment [8], 4.37 µM.
On to `CC1/C=C/C=C/CC/C=C/C=C/C=C/C=C/C(OC2OC(C)C(O)C(N)C2O)CC2OC(CC(O)C(O)CCC(O)CC(O)CC(O)CC(=O)OC(C)C(C)C1O)CC(O)C2C(=O)O` (configuration not stated), for which the TGI in experiment [1] is 30.9 µM; in experiment [2], 39.4 µM and 69.2 µg/mL; in [3], 29.4 µM and 52.5 µg/mL; in experiment [4] it was 45.2 µM and 150 µg/mL; in [5] it was 44.4 µM and 136 µg/mL; in [6] it was 30.3 µM and 43.8 µg/mL. In addition, the TGI was 34 µM and 150 µg/mL in experiment [7]; 35.8 µM and 40.6 µg/mL in experiment [8]. Moreover, the GI50 in [2] was 29.4 µg/mL; in [3] it was 23.9 µg/mL; in experiment [4], 150 µg/mL; in [5], 47.1 µg/mL; in [6] it was 23.4 µg/mL; in experiment [7], 94.5 µg/mL. For the same compound, in [8], the GI50 was 20 µg/mL.
In the case of `O=C(Nc1ccccc1)O/N=C1/CCCC/C1=C\c1ccccc1`, the TGI in [9] came to 34 µM; in [3] it was 30.3 µM; in [4], 52.5 µM; in experiment [5], 35.6 µM; in [6], 31 µM; in [10], 33 µM. In experiment [8], the TGI turned out to be 27 µM.
